Values quoted from earlier work in patent US5032506A, “Color control system” (priority 1986, dated 1991).

Tested on: diaphorase
Conditions: chromogen substrates of diaphorase; literature values (Gella et al. 1981); read-out: Km for the tetrazolium salts

O=[N+]([O-])c1ccc(-[n+]2nc(-c3ccccc3)nn2-c2ccc(I)cc2)cc1 [INT]
Km: 870 µM

COc1cc(-c2ccc(-n3nc(-c4ccccc4)n[n+]3-c3ccc([N+](=O)[O-])cc3)c(OC)c2)ccc1-n1nc(-c2ccccc2)n[n+]1-c1ccc([N+](=O)[O-])cc1 [NBT, nitro blue tetrazolium chloride]
Km: 2000 µM
